Patent publication US9126999B2, “Tetrahydropyrazolopyrimidine compounds” (EISAI R&D MANAGEMENT CO., LTD., priority 2012, dated 2015)
Like-named read-outs stand apart in the source and are kept apart here.

Target: T1, Human TLR8 (Homo sapiens, UniProt Q9NR97)
T1 construct: host or cells: HEK-293 stably expressing human TLR8, then transfected with pNiFty2(NF-kappaB)-luciferase
T1 sequence (Q9NR97 27-1041): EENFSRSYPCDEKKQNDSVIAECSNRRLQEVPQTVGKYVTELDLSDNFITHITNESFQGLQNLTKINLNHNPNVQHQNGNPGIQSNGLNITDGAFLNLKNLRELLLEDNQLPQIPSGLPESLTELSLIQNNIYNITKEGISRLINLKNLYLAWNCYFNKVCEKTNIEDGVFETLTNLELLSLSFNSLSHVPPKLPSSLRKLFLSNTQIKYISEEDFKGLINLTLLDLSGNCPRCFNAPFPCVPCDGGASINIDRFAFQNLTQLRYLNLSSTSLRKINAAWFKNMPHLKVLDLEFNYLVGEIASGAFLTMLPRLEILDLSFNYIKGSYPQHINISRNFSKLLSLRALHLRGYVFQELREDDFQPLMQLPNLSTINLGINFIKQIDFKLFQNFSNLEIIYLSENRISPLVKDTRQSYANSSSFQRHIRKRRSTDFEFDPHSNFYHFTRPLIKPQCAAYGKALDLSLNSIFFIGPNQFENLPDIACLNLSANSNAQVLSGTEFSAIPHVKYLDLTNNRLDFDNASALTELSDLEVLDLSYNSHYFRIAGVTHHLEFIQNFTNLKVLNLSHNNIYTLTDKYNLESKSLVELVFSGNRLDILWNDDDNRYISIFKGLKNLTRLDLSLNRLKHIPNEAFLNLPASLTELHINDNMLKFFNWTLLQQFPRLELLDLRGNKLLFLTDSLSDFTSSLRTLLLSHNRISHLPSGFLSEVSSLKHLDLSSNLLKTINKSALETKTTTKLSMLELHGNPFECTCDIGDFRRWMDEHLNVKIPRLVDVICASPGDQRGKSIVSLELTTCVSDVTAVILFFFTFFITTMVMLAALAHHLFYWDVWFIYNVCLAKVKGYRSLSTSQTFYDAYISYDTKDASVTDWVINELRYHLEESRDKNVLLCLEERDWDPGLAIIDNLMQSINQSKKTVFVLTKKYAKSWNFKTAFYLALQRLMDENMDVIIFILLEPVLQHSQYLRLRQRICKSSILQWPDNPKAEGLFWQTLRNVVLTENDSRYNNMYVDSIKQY
Assay: HEK-293 NF-kappaB luciferase reporter assay, CL097 stimulus
Type: cell-based
From the text: In vitro pharmacology: HEK-293 cells (ATCC) were engineered to stably express a NF-kappaB transcription factor inducible E-selectin (ELAM-1) luciferase reporter derived from the plasmid pGL3 (Promega) containing base pairs −2241 bp to −254 bp from the promoter of the human E-selectin gene (Accession No. NM_000450). These cells were then subsequently engineered to stably and individually express human TLR4, TLR7 or TLR9 full-length ORF cDNAs. Human TLR4 cDNA (Accession No. NM_138554) was cloned into pcDNA 3.0 expression vector (Invitrogen). TLR4 transfected cells were also engineered to express human MD-2 co-receptor [MD-2 cDNA (Accession No. NM_015364) was cloned into the pEF-BOS vector] and were supplemented with 10 nM soluble CD14 (R&D Systems) in the media to optimize LPS responsiveness. Human TLR9 cDNA (Accession No. NM_017442) was cloned into the pBluescript II KS vector (Agilent). Human TLR7 cDNA (Accession No. NM_016562) was obtained from OriGene. HEK-293 cells stably expressing human TLR8 (Accession No. NM_138636) or mouse TLR7 (Accession No. NM_133211) were purchased from InvivoGen and were then stably transfected with pNiFty2(NF-kappaB)-luciferase reporter plasmid (InvivoGen). Each cell type was plated in Dulbecco's modified Eagle's medium (DMEM) containing 10% fetal bovine serum (FBS) at a density of 2.22×10^5 cells/ml into a 384-well plate and incubated for 2 days at 37° C., 5% CO2. Varying concentrations of antagonist compounds were then added. Cells were then incubated for another 30 minutes before adding the appropriate TLR agonist as follows (final concentrations indicated): lipopolysaccharide (LPS; Sigma) at 10 ng/ml for TLR4, CL097 (InvivoGen) at 3 ug/ml for human TLR7 and TLR8 and mouse TLR7, and CpG-2006-2A [sequence: […] (SEQ ID NO: 1) with phosphorothioate backbone, synthesized by Sigma-Aldrich] at 0.6 uM for TLR9.

[1] = human TLR8 in the HEK-293 assay format, read-out: HEK/TLR8 IC50

Compound | IC50 [1] | IC50 (HEK-293, ligand CL097, analyte NFkB-luciferase, read-out: IC50)
COc1ccc([C@@H]2C[C@H](C(F)(F)F)n3nc(-c4ccncc4)cc3N2)cc1OC [ER-885454] | 280 nM | –
COc1ccc([C@@H]2C[C@H](C(F)(F)F)n3nc(-c4ccc(C(=O)N5CCNCC5)cc4)cc3N2)cc1OC [ER-892887, (4-((5S,7R)-5-(3,4-dimethoxyphenyl)-7-(trifluoromethyl)-4,5,6,7-tetrahydropyrazolo[1,5-a]pyrimidin-2-yl)phenyl)(piperazin-1-yl)methanone] | – | 80 nM
Cc1nn(C)cc1[C@@H]1C[C@H](C(F)(F)F)n2nc(-c3ccc(NC(N)=O)cc3)cc2N1 [ER-894595] | 320 nM | –
Cc1nn(C)cc1[C@H]1C[C@@H](C(F)(F)F)n2nc(-c3ccc(NC(N)=O)cc3)cc2N1 [ER-894596] | 540 nM | –
